The subject of the test is L1210 leukemia iv in BDF1 mice, survival T/C. Description: NCI In Vivo Anticancer Drug Screen. Data for tumor model L1210 Leukemia (intravenous) in B6D2F1 (BDF1) mice. As to conditions: higher = longer survival. The procedure:
The antitumor activity of compounds was measured in mice bearing transplantable tumors. Survival or tumor size were measured and the results are expressed as the measurement made in the treated group (T) divided by the measurement made in the vehicle treated control group (C). The tumor model used in this assay is L1210 Leukemia (intravenous) in B6D2F1 (BDF1) mice

“And” between values parts separate entries of the source, which are not always exact repeats. Equal entries are not always repeated. Inconclusive results and toxic doses are left out.

Regarding `CCCCCCCCCCCCCCCC(=O)OCC1OC(n2ccc(N)nc2=O)C(O)C1O` (configuration not stated), the T/C (endpoint: mean survival time, dose: 5.0 mg/kg/injection, schedule: Q01DX005 (ip), vehicle: other) is 118 % of control and 122 % of control; the T/C (endpoint: mean survival time, dose: 10.0 mg/kg/injection, schedule: Q01DX005 (ip), vehicle: other) was 172 % of control; the T/C (endpoint: mean survival time, dose: 15.0 mg/kg/injection, schedule: Q01DX005 (ip), vehicle: other) was 177 % of control; the T/C (endpoint: mean survival time, dose: 18.0 mg/kg/injection, schedule: Q01DX004 (ip), vehicle: other) is 165 % of control and 183 % of control; the T/C (endpoint: mean survival time, dose: 20.0 mg/kg/injection, schedule: Q01DX005 (ip), vehicle: other) is 175 % of control and 176 % of control and 200 % of control; the T/C (endpoint: mean survival time, dose: 25.0 mg/kg/injection, schedule: Q01DX005 (ip), vehicle: other) was 171 % of control and 211 % of control and 220 % of control. The T/C is, setting by setting: (endpoint: mean survival time, dose: 27.0 mg/kg/injection, schedule: Q01DX004 (ip), vehicle: other) 182 % of control and 234 % of control; (endpoint: mean survival time, dose: 27.0 mg/kg/injection, schedule: Q02DX004 (ip), vehicle: other) 178 % of control and 193 % of control; (endpoint: mean survival time, dose: 30.0 mg/kg/injection, schedule: Q01DX005 (ip), vehicle: other) 217 % of control and 249 % of control and 252 % of control; (endpoint: mean survival time, dose: 35.0 mg/kg/injection, schedule: Q01DX005 (ip), vehicle: other) 201 % of control and 267 % of control and 298 % of control; (endpoint: mean survival time, dose: 40.0 mg/kg/injection, schedule: Q01DX004 (ip), vehicle: other) 263 % of control and 291 % of control; (endpoint: mean survival time, dose: 40.0 mg/kg/injection, schedule: Q02DX004 (ip), vehicle: other) 213 % of control and 226 % of control. Besides, the T/C was 216 % of control and 246 % of control (endpoint: mean survival time, dose: 40.0 mg/kg/injection, schedule: Q03DX004 (ip), vehicle: other); 249 % of control and 323 % of control (endpoint: mean survival time, dose: 60.0 mg/kg/injection, schedule: Q01DX004 (ip), vehicle: other); 248 % of control and 280 % of control (endpoint: mean survival time, dose: 60.0 mg/kg/injection, schedule: Q02DX004 (ip), vehicle: other); 242 % of control and 305 % of control (endpoint: mean survival time, dose: 60.0 mg/kg/injection, schedule: Q03DX004 (ip), vehicle: other); 202 % of control and 260 % of control (endpoint: mean survival time, dose: 60.0 mg/kg/injection, schedule: Q04DX004 (ip), vehicle: other); 277 % of control and 309 % of control (endpoint: mean survival time, dose: 90.0 mg/kg/injection, schedule: Q02DX004 (ip), vehicle: other). Moreover, the T/C was 291 % of control and 328 % of control (endpoint: mean survival time, dose: 90.0 mg/kg/injection, schedule: Q03DX004 (ip), vehicle: other); 340 % of control and 303 % of control (endpoint: mean survival time, dose: 90.0 mg/kg/injection, schedule: Q04DX004 (ip), vehicle: other); 200 % of control (endpoint: mean survival time, dose: 100.0 mg/kg/injection, schedule: Q01DX001 (ip), vehicle: saline with Tween-80); 175 % of control and 249 % of control (endpoint: mean survival time, dose: 135.0 mg/kg/injection, schedule: Q03DX004 (ip), vehicle: other); 267 % of control and 327 % of control (endpoint: mean survival time, dose: 135.0 mg/kg/injection, schedule: Q04DX004 (ip), vehicle: other); 229 % of control (endpoint: mean survival time, dose: 150.0 mg/kg/injection, schedule: Q01DX001 (ip), vehicle: saline with Tween-80). Besides, the T/C is, setting by setting: (endpoint: mean survival time, dose: 200.0 mg/kg/injection, schedule: Q04DX004 (ip), vehicle: other) 203 % of control and 244 % of control; (endpoint: median survival time, dose: 75.0 mg/kg/injection, schedule: Q04DX002 (ip), vehicle: saline with Tween-80) 318 % of control and 327 % of control; (endpoint: median survival time, dose: 100.0 mg/kg/injection, schedule: Q04DX002 (ip), vehicle: saline with Tween-80) 314 % of control and 315 % of control.

Turning to `O=NN(CCCl)C(=O)N[C@H]1CCCC[C@H]1Cl`, the T/C by setting is: (endpoint: mean survival time, dose: 25.0 mg/kg/injection, schedule: Q01DX001 (ip), vehicle: carboxymethylcellulose (CMC)) 190 % of control and 262 % of control; (endpoint: mean survival time, dose: 51.0 mg/kg/injection, schedule: Q01DX001 (ip), vehicle: carboxymethylcellulose (CMC)) 427 % of control and 435 % of control; (endpoint: mean survival time, dose: 101.0 mg/kg/injection, schedule: Q01DX001 (ip), vehicle: carboxymethylcellulose (CMC)) 588 % of control and 767 % of control; (endpoint: mean survival time, dose: 203.0 mg/kg/injection, schedule: Q01DX001 (ip), vehicle: carboxymethylcellulose (CMC)) 111 % of control and 202 % of control.

On to `CN(C)/N=N/c1nc[nH]c1C(N)=O`, for which the T/C is 85 % of control and 86 % of control (endpoint: mean survival time, dose: 42.0 mg/kg/injection, schedule: Q01DX001 (ip), vehicle: carboxymethylcellulose (CMC)); 97 % of control and 98 % of control (endpoint: mean survival time, dose: 83.0 mg/kg/injection, schedule: Q01DX001 (ip), vehicle: carboxymethylcellulose (CMC)); 114 % of control and 115 % of control (endpoint: mean survival time, dose: 170.0 mg/kg/injection, schedule: Q01DX001 (ip), vehicle: carboxymethylcellulose (CMC)); 113 % of control (endpoint: mean survival time, dose: 180.0 mg/kg/injection, schedule: Q01DX001 (ip), vehicle: carboxymethylcellulose (CMC)); 161 % of control (endpoint: mean survival time, dose: 600.0 mg/kg/injection, schedule: Q01DX001 (ip), vehicle: carboxymethylcellulose (CMC)); 193 % of control (endpoint: mean survival time, dose: 900.0 mg/kg/injection, schedule: Q01DX001 (ip), vehicle: carboxymethylcellulose (CMC)). The T/C (endpoint: mean survival time, dose: 1012.0 mg/kg/injection, schedule: Q01DX001 (ip), vehicle: carboxymethylcellulose (CMC)) was 183 % of control and 184 % of control; the T/C (endpoint: mean survival time, dose: 1350.0 mg/kg/injection, schedule: Q01DX001 (ip), vehicle: carboxymethylcellulose (CMC)) was 113 % of control.

Consider `CCOC(=O)C1CCC(NC(=O)N(CCCl)N=O)CC1` (configuration not stated), for which the T/C reads like this: (endpoint: mean survival time, dose: 4.0 mg/kg/injection, schedule: Q01DX001 (ip), vehicle: other) 113 % of control and 100 % of control; (endpoint: mean survival time, dose: 8.0 mg/kg/injection, schedule: Q01DX001 (ip), vehicle: other) 116 % of control; (endpoint: mean survival time, dose: 8.6 mg/kg/injection, schedule: Q04DX004 (ip), vehicle: gum acacia) 274 % of control and 275 % of control; (endpoint: mean survival time, dose: 13.0 mg/kg/injection, schedule: Q04DX004 (ip), vehicle: gum acacia) 254 % of control; (endpoint: mean survival time, dose: 16.0 mg/kg/injection, schedule: Q01DX001 (ip), vehicle: other) 162 % of control and 193 % of control; (endpoint: mean survival time, dose: 20.0 mg/kg/injection, schedule: Q04DX004 (ip), vehicle: gum acacia) 837 % of control. The T/C is 1010 % of control (endpoint: mean survival time, dose: 30.0 mg/kg/injection, schedule: Q04DX004 (ip), vehicle: gum acacia); 465 % of control and 302 % of control (endpoint: mean survival time, dose: 33.0 mg/kg/injection, schedule: Q01DX001 (ip), vehicle: other); 663 % of control and 330 % of control (endpoint: mean survival time, dose: 66.0 mg/kg/injection, schedule: Q01DX001 (ip), vehicle: other).

`Nc1ccn(C2OC(COC(=O)C34CC5CC(CC(C5)C3)C4)C(O)C2O)c(=O)n1` (configuration not stated): the T/C by setting is: (endpoint: mean survival time, dose: 100.0 mg/kg/injection, schedule: Q01DX001 (ip), vehicle: other) 150 % of control and 178 % of control; (endpoint: mean survival time, dose: 200.0 mg/kg/injection, schedule: Q01DX001 (ip), vehicle: other) 189 % of control and 215 % of control; (endpoint: mean survival time, dose: 400.0 mg/kg/injection, schedule: Q01DX001 (ip), vehicle: other) 464 % of control and 281 % of control.

Take `CN(Cc1cnc2nc(N)nc(N)c2n1)c1ccc(C(=O)N[C@@H](CCC(=O)O)C(=O)O)cc1`: the T/C runs as follows: (endpoint: mean survival time, dose: 0.3 mg/kg/injection, schedule: Q01DX008 (ip), vehicle: other) 110 % of control; (endpoint: mean survival time, dose: 0.3 mg/kg/injection, schedule: Q01HX008 (ip), vehicle: other) 121 % of control; (endpoint: mean survival time, dose: 0.3 mg/kg/injection, schedule: Q03HX008 (ip), vehicle: other) 118 % of control; (endpoint: mean survival time, dose: 0.3 mg/kg/injection, schedule: Q06HX008 (ip), vehicle: other) 116 % of control; (endpoint: mean survival time, dose: 0.3 mg/kg/injection, schedule: Q12HX008 (ip), vehicle: other) 115 % of control; (endpoint: mean survival time, dose: 0.4 mg/kg/injection, schedule: Q01DX008 (ip), vehicle: other) 121 % of control. Besides, the T/C is 119 % of control (endpoint: mean survival time, dose: 0.4 mg/kg/injection, schedule: Q01HX008 (ip), vehicle: other); 119 % of control (endpoint: mean survival time, dose: 0.4 mg/kg/injection, schedule: Q03HX008 (ip), vehicle: other); 122 % of control (endpoint: mean survival time, dose: 0.4 mg/kg/injection, schedule: Q06HX008 (ip), vehicle: other); 115 % of control (endpoint: mean survival time, dose: 0.4 mg/kg/injection, schedule: Q12HX008 (ip), vehicle: other); 122 % of control (endpoint: mean survival time, dose: 2.4 mg/kg/injection, schedule: Q01DX001 (ip), vehicle: other); 119 % of control (endpoint: mean survival time, dose: 3.2 mg/kg/injection, schedule: Q01DX001 (ip), vehicle: other).

For `O=NN(CCF)C(=O)NCCCl`, the T/C (endpoint: mean survival time, dose: 9.0 mg/kg/injection, schedule: Q01DX001 (ip), vehicle: Klucel (hydroxypropylcellulose) (HPC)) was 197 % of control and 294 % of control; the T/C (endpoint: mean survival time, dose: 14.0 mg/kg/injection, schedule: Q01DX001 (ip), vehicle: Klucel (hydroxypropylcellulose) (HPC)) is 226 % of control and 270 % of control; the T/C (endpoint: mean survival time, dose: 21.0 mg/kg/injection, schedule: Q01DX001 (ip), vehicle: Klucel (hydroxypropylcellulose) (HPC)) is 342 % of control and 307 % of control; the T/C (endpoint: mean survival time, dose: 32.0 mg/kg/injection, schedule: Q01DX001 (ip), vehicle: Klucel (hydroxypropylcellulose) (HPC)) is 603 % of control and 323 % of control.

These data come from PubChem BioAssay AID254 (DTP/NCI, 2004).
